Experimental data: PubChem BioAssay (NCI)
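Each compound was tested at five concentrations against cells in 96-well plates for 48 hours. Definition used: TGI = concentration required for complete inhibition of growth.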

Assays:
Assay in all cases: inhibition of tumour cell growth, NCI panel, 48 h
SF-268 CNS = system: SF-268 CNS
HOP-62 NSCLC = system: HOP-62 NSCLC
NCI-H522 lung = system: NCI-H522 lung
OVCAR-3 ovarian = system: OVCAR-3 ovarian
OVCAR-8 ovarian = system: OVCAR-8 ovarian
DU-145 prostate = system: DU-145 prostate
NCI/ADR-RES ovarian = system: NCI/ADR-RES ovarian
UO-31 renal = system: UO-31 renal
SW-620 colon = system: SW-620 colon
T-47D breast = system: T-47D breast
UACC-62 melanoma = system: UACC-62 melanoma
HT29 colon = system: HT29 colon
RPMI-8226 leukemia = system: RPMI-8226 leukemia
A498 renal = system: A498 renal
NCI-H226 lung = system: NCI-H226 lung
IGROV1 ovarian = system: IGROV1 ovarian
SNB-19 CNS = system: SNB-19 CNS
MALME-3M melanoma = system: MALME-3M melanoma
SK-OV-3 ovarian = system: SK-OV-3 ovarian
HCT-116 colon = system: HCT-116 colon
SN12C renal = system: SN12C renal
COLO 205 colon = system: COLO 205 colon
HS 578T breast = system: HS 578T breast
A549 NSCLC = system: A549 NSCLC
MOLT-4 leukemia = system: MOLT-4 leukemia
OVCAR-4 ovarian = system: OVCAR-4 ovarian
NCI-H460 lung = system: NCI-H460 lung
MDA-MB-231 breast = system: MDA-MB-231 breast
UACC-257 melanoma = system: UACC-257 melanoma
HCC-2998 colon = system: HCC-2998 colon
MCF7 breast = system: MCF7 breast
LOX IMVI melanoma = system: LOX IMVI melanoma
MDA-MB-435 = system: MDA-MB-435
ACHN renal = system: ACHN renal
SF-539 CNS = system: SF-539 CNS
M14 melanoma = system: M14 melanoma
U251 CNS = system: U251 CNS
HOP-92 NSCLC = system: HOP-92 NSCLC
MDA-N = system: MDA-N
NCI-H23 lung = system: NCI-H23 lung
786-0 renal = system: 786-0 renal
OVCAR-5 ovarian = system: OVCAR-5 ovarian
RXF 393 renal = system: RXF 393 renal
KM12 colon = system: KM12 colon
SK-MEL-5 melanoma = system: SK-MEL-5 melanoma
SR leukemia = system: SR leukemia
SF-295 CNS = system: SF-295 CNS
SK-MEL-28 melanoma = system: SK-MEL-28 melanoma
CAKI-1 renal = system: CAKI-1 renal
EKVX NSCLC = system: EKVX NSCLC
CCRF-CEM leukemia = system: CCRF-CEM leukemia
HL-60(TB) leukemia = system: HL-60(TB) leukemia
SNB-75 CNS = system: SNB-75 CNS
PC-3 prostate = system: PC-3 prostate
TK-10 renal = system: TK-10 renal
K-562 leukemia = system: K-562 leukemia
HCT-15 colon = system: HCT-15 colon
BT-549 breast = system: BT-549 breast
SK-MEL-2 melanoma = system: SK-MEL-2 melanoma

Measured: TGI

CCOC(=O)C(NS(=O)(=O)c1ccccc1)(C(F)(F)F)P(=O)(OCC(C)C)OCC(C)C (stereo not drawn)
not listed: BT-549 breast | SK-MEL-2 melanoma
> 100 µM: all other assays above

O=C(N/N=C/c1ccc(O)cc1)NNCCO
not listed: SF-268 CNS | RPMI-8226 leukemia | OVCAR-4 ovarian | LOX IMVI melanoma | ACHN renal | HOP-92 NSCLC | RXF 393 renal | EKVX NSCLC
> 100 µM: all other assays above
